Laboratory results taken from patent US4983616A, “Hexahydropyrrolo(2,3-B)indole carbamates, ureas, amides and related compounds” (priority 1990, dated 1991).
Counter-ions that a name gives are not always drawn. Like-named read-outs stand apart in the source and are kept apart here.

Assays:
[1] = system: Scopolamine Induced Memory Deficit; format: in vivo, mice
Experimental: In this assay mice are tested for their ability to remember an unpleasant stimulus for a period of 24 hours. A mouse is placed in a chamber that contains a dark compartment; a strong incandescent light drives it to the dark compartment, where an electric shock is administered through metal plates on the floor. The animal is removed from the testing apparatus and tested again, 24 hours later, for the ability to remember the electric shock.
If scopolamine, an anticholinergic that is known to cause memory impairment, is administered before an animal's initial exposure to the test chamber, the animal re-enters the dark compartment shortly after being placed in the test chamber 24 hours later. This effect of scopolamine is blocked by an active test compound, resulting in a greater interval before re-entry into the dark compartment.
The results for an active compound are expressed as the percent of a group of animals in which the effect of scopolamine is blocked, as manifested by an increased interval between being placed in the test chamber and re-entering the dark compartment.
Results of this assay for some of the compounds of this invention and those for tacrine and pilocarpine (reference compounds) are presented in Table 2.

[2] = target: T1, Brain AChE (acetylcholinesterase, rat striatum) (Rattus norvegicus, UniProt P37136); test: In Vitro Inhibition of Acetylcholinesterase Activity in Rat Striatum; format: biochemical, rat (male Wistar)
T1 construct: corpora striata dissected free, weighed and homogenized in 19 volumes; from tissue; host or cells: corpora striata of male Wistar rats, whole homogenate
T1 sequence (P37136 32-614): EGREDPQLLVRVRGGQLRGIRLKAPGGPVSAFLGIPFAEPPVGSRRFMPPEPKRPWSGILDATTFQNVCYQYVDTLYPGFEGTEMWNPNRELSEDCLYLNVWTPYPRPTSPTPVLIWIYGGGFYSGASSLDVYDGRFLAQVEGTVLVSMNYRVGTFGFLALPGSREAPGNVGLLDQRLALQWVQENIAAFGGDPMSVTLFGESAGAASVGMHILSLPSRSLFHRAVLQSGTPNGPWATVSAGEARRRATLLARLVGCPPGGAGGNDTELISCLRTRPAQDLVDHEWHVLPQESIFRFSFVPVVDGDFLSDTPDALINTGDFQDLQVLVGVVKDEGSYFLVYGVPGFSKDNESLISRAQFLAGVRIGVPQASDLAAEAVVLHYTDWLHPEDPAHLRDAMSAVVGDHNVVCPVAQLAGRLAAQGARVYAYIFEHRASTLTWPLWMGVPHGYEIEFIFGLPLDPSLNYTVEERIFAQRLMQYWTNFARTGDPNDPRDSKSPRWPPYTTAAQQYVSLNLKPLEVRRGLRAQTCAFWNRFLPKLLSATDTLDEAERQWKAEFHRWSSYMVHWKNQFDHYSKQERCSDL
Experimental: Cholinesterases are found throughout the body, both in the brain and in serum. However, only brain acetylcholinesterase (AChE) distribution is correlated with central cholinergic innervation.
In Vitro Inhibition of Acetylcholinesterase Activity in Rat Striatum
The method described below was used in this invention for assaying cholinesterase activity.
1. 0.05M Phosphate buffer, pH 7.2
(a) 6.85 g NaH2 PO4 .cndot.H2 O/100 ml distilled H2 O
(c) add (a) to (b) until pH reaches 7.2
(a) 9.9 mg 5,5-dithiobisnitrobenzoic acid (DTNB) (0.25 mM)
(b) 99 mg s-acetylthiocholine chloride (5 mM)
(c) q.s. to 100 ml with 0.05M phosphate buffer, pH 7.2 (reagent 1)
3. […]
Following the 10 minute preincubation of the tissue (enzyme) with the inhibitor, the samples are mixed with the substrate chromogen buffer by the ABA-100. Using the indicated instrument settings the ABA-100 automatically reads the color reaction and prints out the results in enzyme units after 15 minutes.
2. The enzyme activity can also be measured with Gilford 250 spectrophotometer. […]
The uninhibited activity of the enzyme (tissue homogenate) is first determined. […] The reaction rate is determined by the slope of the recorded absorbance change. […]

[3] = 0.31 mg/kg of body weight, s.c, mice, 24 hours
[4] = 5.0 mg/kg of body weight, s.c, mice, 24 hours

With `Nc1c2c(nc3ccccc13)CCCC2` [Tacrine, reference compound] the “% of Animals with Scopolamine Induced Memory Deficit Reversal” value (from here on “% of Animals”) ([1]; mouse, in vivo) was 13%.

In the case of `CN1CCC2(C)c3cc(NC(=O)Oc4ccccc4)ccc3N(C)C12.O=C(O)C(=O)O` (stereo not shown) [1,2,3,3a,8,8a-Hexahydro-5-(phenoxycarbonylamino)-1,3a,8-trimethylpyrrolo[2,3-b]indole oxalate], the “% of Animals” value [1, 3] is reported as 40%, the “% of Animals” value ([1]; 1.16 mg/kg of body weight, s.c, mice, 24 hours) is reported as 53% and the “% of Animals” value [1, 4] is reported as 21%. For the same molecule, the IC50 [2] was 14 µM.

In the case of `CN1CCC2(C)c3cc(NC(=O)Oc4ccc(Cl)cc4)ccc3N(C)C12` (stereo not shown) [5-(4-Chlorophenoxycarbonylamino)-1,2,3,3a,8,8a-hexahydro-1,3a,8-trimethylpyrrolo[2,3-b]indole oxalate], the IC50 [2] is reported as 1.1 µM.

For `CN1CCC2(C)c3cc(NC(=O)OCc4ccccc4)ccc3N(C)C12` (stereo not shown) [5-(Benzoxycarbonylamino)-1,2,3,3a,8,8a-hexahydro-1,3a,8-trimethylpyrrolo[2,3-b]indole], the “% of Animals” value ([1]; 0.3 mg/kg of body weight, s.c, mice, 24 hours) was 28%, the “% of Animals” value ([1]; 1.0 mg/kg of body weight, s.c, mice, 24 hours) was 21% and the “% of Animals” value ([1]; 3.0 mg/kg of body weight, s.c, mice, 24 hours) was 21%.

In the case of `CC[C@@H]1C(=O)OC[C@@H]1Cc1cncn1C` [Pilocarpine, reference compound], the “% of Animals” value [1, 4] is reported as 13%.

In the case of `CN1CCC2(C)c3cc(NC(=O)OC(C)(C)C)ccc3N(C)C12.O=C(O)C(=O)O` (stereo not shown) [5-(t-Butoxycarbonylamino)-1,2,3,3a,8,8a-hexahydro-1,3a,8-trimethylpyrrolo[2,3-b]indole oxalate], the “% of Animals” value [1, 3] is reported as 33%, the “% of Animals” value ([1]; 1.25 mg/kg of body weight, s.c, mice, 24 hours) is reported as 20% and the “% of Animals” value [1, 4] is reported as 27%.
